Test results reported in the NIST ThermoML archive (doi:10.1021/acs.jced.6b00092).
± gives the expanded uncertainty stated by the source.

Experiments:
[1] = Liquid; for mass density: 298.15 K, 101.33 kPa, Vibrating tube method; for vapor or sublimation pressure / Normal boiling temperature: Ebulliometric method (Recirculating still)
[2] = refractive index (Na D-line) (dimensionless); conditions: 298.15 K; 101.33 kPa; Liquid; Standard Abbe refractometry

SMILES	mass density [1] [kg/m3]	vapor or sublimation pressure ([1]; 473.44 K) [kPa]	vapor or sublimation pressure ([1]; 485.11 K) [kPa]	vapor or sublimation pressure ([1]; 493.78 K) [kPa]	Normal boiling temperature [1] [°C]	refractive index [2]	vapor or sublimation pressure ([1]; 442.09 K) [kPa]	vapor or sublimation pressure ([1]; 453.84 K) [kPa]	vapor or sublimation pressure ([1]; 462.67 K) [kPa]	vapor or sublimation pressure ([1]; 379.01 K) [kPa]	vapor or sublimation pressure ([1]; 389.52 K) [kPa]	vapor or sublimation pressure ([1]; 397.48 K) [kPa]
OCCCCO [1,4-butanediol]	1012.96 ± 10	40 ± 7	60 ± 8	80 ± 9	227.93 ± 4	1.4447 ± 0.0004						
CC(O)CC(C)(C)O (stereo not drawn) [2-methyl-2,4-pentanediol]	915.6 ± 10				197.30 ± 4	1.4265 ± 0.0004	40 ± 7	60 ± 8	80 ± 9			
CC(C)CCO [3-methylbutan-1-ol]	807.3 ± 10				130.70 ± 4	1.4055 ± 0.0004				40 ± 8	60 ± 12	80 ± 16
